What all share (assay): inhibition of tumour cell growth, NCI panel, 48 h
Test [1] deals with SNB-19.
The subject of test [2] is COLO 205.
Test [3] has as its system LOX IMVI.
Test [4] deals with RXF 393.
Test [5] concerns OVCAR-8.
The test system of test [6] is NCI/ADR-RES.
For test [7], the system named is SF-268.
Test [8] relates to CAKI-1.
In test [9] the test system is PC-3.
Test [10] deals with ACHN.
The subject of test [11] is MCF7.
Test [12] concerns SNB-75.
The subject of test [13] is SR.
The test system of test [14] is UACC-257.
The test system of test [15] is BT-549.
The test system of test [16] is T47D.
Test [17] has as its system NCI-H522.
Test [18] deals with NCI-H226.
Test [19] concerns HCT-15.
The subject of test [20] is HCC 2998.

Molecules are shown by their SMILES.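 1) Cells in 96-well plates. 2) Compound, 48 h, 5 concentrations. 3) Linear interpolation between surrounding doses. 4) Unreached endpoint = highest concentration. GI50 marks 50% less growth.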 The source made the active and inactive calls. Cut-off read from the data, not from the text of the source: active = GI50 up to about 1.1 µM and inactive = higher.

On to `Cc1ccc(C2=NOC(=O)[C@@H]3CCCC[C@@H]23)cc1`, for which the GI50 in [1], in test [2], in test [3], in [4], in test [5] and in test [6] was > 100 µM (inactive) throughout. Moreover, the GI50 in [7], in [8], in test [9], in test [10], in [11] and in test [12] was > 100 µM (inactive) in each case. The GI50 in test [13] is > 100 µM (inactive); in [14] it was > 100 µM (inactive); in test [15], > 100 µM (inactive); in [16] it was 76.4 µM (inactive); in [17], > 100 µM (inactive); in [18] it was > 100 µM (inactive). Further, the GI50 in test [19] is above 100 µM; in [20], > 100 µM (inactive).
As for `C=CCN1C(N)=C(C#N)C(C#N)(C#N)C1CCC` (configuration not stated), the GI50 in test [1], in test [2], in test [3], in test [4], in [5] and in [6] was > 100 µM (inactive) throughout. Besides, the GI50 in test [7], in test [8], in [9], in test [10], in [11] and in [12] was > 100 µM (inactive) throughout. Also, the GI50 was > 100 µM (inactive) in [13]; > 100 µM (inactive) in test [14]; > 100 µM (inactive) in test [15]; 54.8 µM (inactive) in [16]; > 100 µM (inactive) in [17]; > 100 µM (inactive) in test [18]. The GI50 in test [19] is above 100 µM; in [20], > 100 µM (inactive).
With `COC(=O)C1=C(C(=O)OC)SC2(S1)C(C(=O)OC)=C(C(=O)OC)Sc1c2ss/c1=N/C(C)(C)C`, the GI50 is 2.13 µM (inactive) in test [1]; 1.45 µM (inactive) in test [2]; 1.04 µM (active) in test [3]; 0.541 µM (active) in test [4]; 1.71 µM (inactive) in [5]; 2.5 µM (inactive) in test [6]. For the same compound, the GI50 is 1.86 µM (inactive) in test [7]; 1.53 µM (inactive) in test [8]; 1.26 µM (inactive) in test [9]; 1.74 µM (inactive) in [10]; 1.26 µM (inactive) in test [11]; 1.45 µM (inactive) in [12]. Besides, the GI50 in test [13] was 0.366 µM (active); in test [14], 1.47 µM (inactive); in test [15], 2.07 µM (inactive); in [16] it was 1.41 µM (inactive); in test [17], 0.555 µM (active); in test [18] it was 3.18 µM (inactive). For the same compound, the GI50 in test [19] was 0.622 µM; in [20] it was 1.08 µM (active).
Regarding `FC(F)(F)c1ccc2c(c1)nc(Cc1ccc(Cl)c(Cl)c1)n2CC1CCCN2CCCCC12` (configuration not stated), the GI50 in test [1] is 18.9 µM (inactive); in [2], 16.1 µM (inactive); in [3], 16.3 µM (inactive); in [4], 23.6 µM (inactive); in test [5], 35.8 µM (inactive); in test [6] it was 25.8 µM (inactive). The GI50 in test [7] is 27.8 µM (inactive); in test [8], 29.7 µM (inactive); in test [9], 30.5 µM (inactive); in test [10], 22.8 µM (inactive); in test [11], 17.5 µM (inactive); in test [12], 28.6 µM (inactive). The GI50 was 23.2 µM (inactive) in [13]; 18.5 µM (inactive) in test [14]; 28.6 µM (inactive) in test [15]; 29 µM (inactive) in test [16]; 14.2 µM (inactive) in [17]; 26.5 µM (inactive) in test [18]. Besides, the results for the GI50 in test [19] and in [20] were 30.8 µM and 8.95 µM (inactive), respectively.
As to `O=c1oc2c(ccc3c(O)cccc32)c2c1CCCC2`, the GI50 in [1] is 27.7 µM (inactive); in [2], > 100 µM (inactive); in test [3], 16.7 µM (inactive); in test [4] it was 14.5 µM (inactive); in test [5], 30.6 µM (inactive); in [6], 46 µM (inactive). In addition, the GI50 is 15 µM (inactive) in test [7]; 32.2 µM (inactive) in [8]; > 100 µM (inactive) in test [9]; 26.8 µM (inactive) in test [10]; 42.2 µM (inactive) in test [11]; 4.85 µM (inactive) in [12]. The GI50 in test [13] is 4.55 µM (inactive); in test [14], > 100 µM (inactive); in [15] it was 15.1 µM (inactive); in [16], 80.9 µM (inactive); in test [17], 40 µM (inactive); in test [18], > 100 µM (inactive). The GI50 in test [20] was 5.61 µM (inactive).
With `CC(=O)OC1/C(=C/c2ccc([N+](=O)[O-])cc2)C[C@H]2[C@@H]3CC=C4C[C@@H](OC(C)=O)CC[C@]4(C)[C@H]3CC[C@]12C` (some centres not stated), the GI50 in test [1] was > 72.4 µM (inactive); in test [2], > 54.6 µM (inactive); in [3] it was > 100 µM (inactive); in [4] it was 20 µM (inactive); in test [5], > 100 µM (inactive); in test [6] it was > 43 µM (inactive). Also, the GI50 in [7] is 51.4 µM (inactive); in [8] it was > 48.9 µM (inactive); in test [9], > 100 µM (inactive); in test [10], 99.8 µM (inactive); in test [11] it was > 100 µM (inactive); in test [13] it was 5.13 µM (inactive). The GI50 in test [14] was > 100 µM (inactive); in [15] it was > 100 µM (inactive); in test [16], > 100 µM (inactive); in test [17] it was > 91.8 µM (inactive); in [18], 4.63 µM (inactive); in test [19] it was above 100 µM. Also, the GI50 in test [20] is > 100 µM (inactive).
Take `O=C(OCC(Cl)(Cl)Cl)O[C@@H]1CCCC1(c1ccccc1)c1ccccc1`: the GI50 in test [1] was > 100 µM (inactive); in test [2], > 100 µM (inactive); in test [3], 76.7 µM (inactive); in [4] it was 63.2 µM (inactive); in [6], > 100 µM (inactive); in test [7], > 100 µM (inactive). In addition, the GI50 in test [8] is > 100 µM (inactive); in test [9] it was 37.5 µM (inactive); in test [10] it was > 100 µM (inactive); in test [11], 55.1 µM (inactive); in test [12], > 100 µM (inactive); in test [13] it was 12.6 µM (inactive). For the same compound, the GI50 in [14] is 67.8 µM (inactive); in [15], > 100 µM (inactive); in [16] it was 72.1 µM (inactive); in [17], 38.7 µM (inactive); in test [18] it was 37.5 µM (inactive); in test [19], 77.4 µM. Moreover, the GI50 in test [20] is 45.4 µM (inactive).

(Values after ChEMBL document CHEMBL1201862, “PubChem BioAssay data set” (2004).)
